Results published in patent publication US8920334B2, “Method of breath analysis for determining liver capacity or microcirculation using 13C-labeled methacetin substrate” (Freie Universitaet Berlin, priority 2005, dated 2014).

Columns and labels:
[1] = molecular target: T1, enzyme CYP1A2 in the liver (Homo sapiens, UniProt P05177); test: 13C-methacetin breath test (LiMAx) before and after partial liver resection; format: in vivo; conditions: patients, mean
T1 construct: demethylated to paracetamol in a rapid one-step reaction by the enzyme CYP1A2 in the liver; from tissue; host or cells: liver of living patients (in vivo)
T1 sequence (P05177 1-516): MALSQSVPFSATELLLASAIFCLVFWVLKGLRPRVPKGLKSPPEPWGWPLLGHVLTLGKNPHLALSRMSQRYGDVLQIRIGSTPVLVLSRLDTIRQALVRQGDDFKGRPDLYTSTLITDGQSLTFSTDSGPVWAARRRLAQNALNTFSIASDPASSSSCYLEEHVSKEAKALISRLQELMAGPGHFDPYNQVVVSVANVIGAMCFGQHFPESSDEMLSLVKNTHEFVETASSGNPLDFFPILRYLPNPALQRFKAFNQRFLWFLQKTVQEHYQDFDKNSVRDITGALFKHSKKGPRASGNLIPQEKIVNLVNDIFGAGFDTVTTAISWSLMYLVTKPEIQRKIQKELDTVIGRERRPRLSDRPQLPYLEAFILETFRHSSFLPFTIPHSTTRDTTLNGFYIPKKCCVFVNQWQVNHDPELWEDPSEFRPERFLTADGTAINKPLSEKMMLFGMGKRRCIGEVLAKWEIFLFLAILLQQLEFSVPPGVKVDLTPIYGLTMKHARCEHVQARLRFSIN
Procedure: This object is achieved by an analysis method, for determining a functional parameter of an organ of a human or animal individual. According to this analysis method, the ^13CO2 content in the air exhaled by the individual is measured, the ^13CO2 in the body of the individual being formed enzymatically from a substrate that has been administered beforehand to the individual, and then being exhaled by the individual. The measurement of the ^13CO2 content in the air exhaled by the individual is carried out using a suitable measurement device. The maximum reaction rate of the substrate in the body of the individual is determined via a change of the measured ^13CO2 content in the air exhaled by the individual using zero-order enzyme kinetics. The analysis method according to the invention therefore proceeds from a consideration of enzyme kinetics.
In a particularly preferred embodiment of the invention, the maximum reaction rate (LiMAx) is calculated through the converted quantity of substrate per unit of time in μg/h/kg bodyweight at variable times at which the maximum value is reached, such that genuine quantification of the maximum functional liver capacity can be made. The calculation is carried out according to the following formula (1), which describes zero-order enzyme kinetics: […]
Here, δ^13C is the difference between the ^13CO2/^12CO2 ratio of the sample and the Pee Dee Belmite (PDB) standard in delta per mil, RPDB is the ^13CO2/^12CO2 ratio of the PDB standard (0.0112375), P is the CO2 production rate (300 mmol/h×surface area of body in m^2), M is the molecular weight of the substrate, and KG is the actual bodyweight of the individual in kg.
The inundation time is preferably used to assess the microcirculation in the liver, so as to be able to detect microcirculation disturbances. Assuming the quickest possible inundation by in particular intravenous bolus injection and substrate excess and the high first-pass effect of methacetin or another substrate, the hepatic microcirculation can be assessed particularly advantageously. The inundation time needed to reach the maximum reaction rate tvmax is determined, said inundation time lengthening in the presence of microcirculation disturbances, since in this case the substrate inundation is not uniformly or completely delayed in all areas of the liver. Liver perfusion can thus be assessed.
The rapid substrate inundation required for the enzyme-kinetic evaluation is ensured by the fact that ^13C methacetin is administered intravenously in a bolus. The intravenous bolus injection ensures an immediate and complete substrate inundation in the liver. The absorption of the test substance ^13C-methacetin is no longer the step that determines the reaction rate. With the preferred dose of 2 mg methacetin per kg bodyweight, a temporary enzyme utilization is also permitted in patients with a healthy liver by a short-term substrate excess. This permits the actual quantitative expressiveness, since zero-order enzyme kinetics are achieved, and only this permits a statement concerning the maximum functional capacity of an enzyme system.
In the context of a prospective study, a method, which is discussed in more detail below, was used to evaluate liver function before and after partial liver resection in a number of patients: • 1. […]

[2] = cited from earlier work

inundation time (tvmax) until maximum reaction rate ([1]; after partial liver resection) [min] | inundation time (tvmax) until maximum reaction rate ([1]; before partial liver resection) [min] | maximum functional liver capacity (LiMAx) ([1]; post-operative day 1 (POD1) after partial liver resection) [µg/h/kg] | maximum functional liver capacity (LiMAx) ([1]; post-operative day 10 (POD10) after partial liver resection) [µg/h/kg] | maximum functional liver capacity (LiMAx) ([1]; pre-operative (before partial liver resection), intravenous 13C-methacetin solution) [µg/h/kg] | Compound | solubility ([2]; in water or in an aqueous buffer) | stability of aqueous solution (crystallization) ([2]; usually aqueous solution)
53.5 ± 7.51 | 11.9 ± 2.17 | 141 ± 13 | 249 ± 17 | 301 ± 24 | COc1ccc(NC(C)=O)cc1 [^13C-methacetin] |  | 
 |  |  |  |  | COc1ccc(NC(C)=O)cc1 [methacetin] | extremely sparingly soluble | crystallizes out of a usually aqueous solution within a period of hours to days
